Results on two compounds are retold here after US20160106770A1, “EPIGENETIC MECHANISMS OF ANTI-FIBROTIC ACTION FOR THE LIVER” (University of Southern California, priority 2011, published 2016).

Data set [1] concerns TOPFLASH promoter activity in rat primary HSCs. Description: TOPFLASH TCF promoter-luciferase reporter, transient transfection by electroporation. Type of data set: cell-based. The conditions noted are these: day 7 primary HSCs. The protocol: TCF promoter-luciferase construct TOPFLASH (a gift from Dr. Randall Moon, Univ. of Washington, Seattle, Wash.) or a KB luciferase construct was used for transient transfection in the rat primary HSCs by electroporation using the NeonTM Transfection System (Invitrogen). The Renilla pRL-TK construct was used for standardization for transfection efficiency. Cell lysates were analyzed by the dual luciferase assay (Promega) on a luminometer. To assess the activity of IKK, IKK was immunoprecipitated by IKKα antibody and protein G-Sepharose, and the assay was performed at 30° C. for 1 hr in buffer containing 20 mM Tris HCl, pH 7.5, 20 mM MgCl2, 2 mM dithiothreitol, 20 μM ATP, 2 μg GST-IκBα, and [γ-32P]ATP. The reaction was stopped by addition of […] buffer and was resolved by 10% SDS-PAGE followed by a transfer onto a membrane for imaging.
A general note: Reporter assays use an easily measured gene product as a stand-in for the process of interest.

Data set [2] deals with culture-activated rat primary HSCs. Description: Real time quantitative PCR of cultured HSCs. Type of data set: cell-based. The conditions noted are these: for expression of Necdin / expression of Wnt3a / expression of Wnt10b: 270 μM, day 7 HSCs vs vehicle; for EZH2 expression: day 7 HSCs, RA or BC. An excerpt:
HSCs were isolated from normal male Wistar rats, C57B1/6 and Coll-GFP mice by in situ digestion of the liver and arabinogalactan gradient ultracentrifugation by the Non-Parenchymal Liver Cell Core of the Southern California Research Center for ALPD and Cirrhosis as described previously in Cheng J H et al,. Wnt antagonism inhibits hepatic stellate cell activation and liver fibrosis, Am J Physiol Gastrointest Liver Physiol, 2007 Nov 15; and Zhu N L et al., The […] pathway causes epigenetic peroxisome proliferator-activated receptor gamma repression in hepatic stellate cells, J Biol Chem, 2010 Oct 1; 285(40):30463-30471, both of which are incorporated by reference herein in their entirety as though fully set forth. The purity of the cells, as determined by phase contrast microscopy and ultraviolet-excited fluorescence microscopy, exceeded 96%, and the viability as determined by trypan blue exclusion exceeded 94%. In vitro activation of HSCs was achieved by culturing rat HSCs in Dulbecco's modified Eagle's medium (DMEM) with 1.0 g/liter glucose, 10% fetal bovine serum and 1% antibiotics on plastic dish for 3, 5 or 7 days. Culture-activated rat primary HSCs were treated with the YGW or starch (control) aqueous extract at 25% (v/v). To obtain the extract, the YGW or starch powder (provided by S.P. Pharmaceutics Inc.) was suspended in DMEM at the concentration of 35 mg/ml, mixed thoroughly with a vortex for 5 min, and centrifuged at ×150 g for 30 min to collect the supernatant. This supernatant was designated as 100% extract and used after filter-sterilization. RA and BC (Sigma Chemical Co) were dissolved in DMSO and tested at the concentration of […]. Total RNA was extracted from the cells using TRIzol reagent (Invitrogen) or RNeasy Mini kit (Qiagen). One microgram of RNA was reverse transcribed to cDNA by using SuperScript III First-Strand Synthesis System (Invitrogen) and amplified by 40 cycles using primers listed below and the SYBR Green PCR Master mix reagent (AB Applied Biosystem). Each threshold cycle (Ct) value was first normalized to the 36B4 Ct value of a sample and subsequently compared between the treatment and control samples.

Data set [3] concerns Pparγ gene. Description: Chromatin immunoprecipitation (ChIP) at the Pparγ gene in HSCs. It is filed as cell-based, rat. Conditions: day 7 HSCs, RA or BC. On the procedure: For assessing Pparγ epigenetic regulation, carrier ChIP was performed using Raji cells as the source of carrier chromatin. For native ChIP, 20 μg of HSC chromatin was mixed with 80 μg of Raji cell chromatin. For cross-link ChIP, Raji cells (1.4×10^7 cells) were mixed to HSCs (0.2×10^6 cells) and fixed with 1% formaldehyde on the rotating platform for 5-10 minutes at room temperature followed by addition of glycine to a final concentration of 0.125M. After lysis of the cells with SDS buffer (1% SDS, 10 mM EDTA, 50 mM Tris-HCl pH8.1) with protease inhibitors, the lysates were sonicated and snap frozen in aliquots. For chromatin IP, diluted samples were first pre-cleared using protein G-agarose beads and then incubated with antibody against […], MeCP2, H3K27me2, H3K4me2 and […] (Abcam) at 1 μg/μl at 4° C. for overnight followed by precipitation with protein G agarose beads. After elution of immunoprecipitated complex, crosslinking was reversed with 5N NaCl and proteins digested with protease K. Extracted chromatin was subjected to real-time PCR using the primers flanking a segment within Pparγ promoter or exon as previously described in Mann J et al., MeCP2 controls an epigenetic pathway that promotes myofibroblast transdifferentiation and fibrosis, Gastroenterology, 2010 Feb; 138(2):705-14, 714, which is incorporated herein by reference as though fully set forth. Ct values of the samples with non-immune IgG were subtracted and compared to their respective input Ct values.

In data set [4] the test system is rat HSCs. The experiment in a line: Immunoblot analysis of cultured HSCs. It is filed as cell-based. Conditions: day 7 HSCs, RA or BC. On the procedure: Whole cell extracts were prepared as previously described in Hazra S. et al., Peroxisome proliferator-activated receptor gamma induces a phenotypic switch from activated to quiescent hepatic stellate cells, J Biol Chem, 2004 Mar 19; 279 (12):11392-11401, which is incorporated by reference herein as though fully set forth. Equal amounts of the extract (20 μg) were separated by 8-15% SDS-PAGE and the proteins were transferred to nitrocellulose membranes (Bio-Rad, Hercules, Calif.). MeCP2, type I collagen, and β-actin were detected by incubating with rabbit polyclonal anti-MeCP2 (1:1000) (Abcam), antitype I collagen (1:4000), and anti-β-actin (1:5000) primary antibodies (Santa Cruz Biotechnology) in TBS (100 mM Tris-HCl, 1.5 M NaCl, pH 7.4) with 5% nonfat milk overnightat 4° C. followed by incubation with horseradish peroxidase conjugated goat anti-rabbit secondary antibodies (1:4000) (Sigma) at room temperature for 2 hr. The antigen-antibody complexes' chemiluminescence was detected by using the ECL detection kit (Pierce).
(In general: In western blotting, separated proteins are transferred to a membrane and probed.)

Data set [5] concerns culture-activated rat primary HSCs. The experiment in a line: Morphologic reversal of culture-activated HSCs (phase contrast / UV autofluorescence microscopy). Type of data set: cell-based. Conditions: concentration of 135 and 270 μM.
Procedure: The purity of the cells, as determined by phase contrast microscopy and ultraviolet-excited fluorescence microscopy, exceeded 96%, and the viability as determined by trypan blue exclusion exceeded 94%. In vitro activation of HSCs was achieved by culturing rat HSCs in Dulbecco's modified Eagle's medium (DMEM) with 1.0 g/liter glucose, 10% fetal bovine serum and 1% antibiotics on plastic dish for 3, 5 or 7 days. Culture-activated rat primary HSCs were treated with the YGW or starch (control) aqueous extract at 25% (v/v). To obtain the extract, the YGW or starch powder (provided by S.P. Pharmaceutics Inc.) was suspended in DMEM at the concentration of 35 mg/ml, mixed thoroughly with a vortex for 5 min, and centrifuged at ×150 g for 30 min to collect the supernatant. This supernatant was designated as 100% extract and used after filter-sterilization. RA and BC (Sigma Chemical Co) were dissolved in DMSO and tested at the concentration of 67.5˜270 μM.
The subject of data set [6] is BDL-induced cholestatic liver fibrosis in mice. The experiment in a line: Bile duct ligation (BDL) cholestatic liver fibrosis model. Type of data set: in vivo. The protocol: Male C57B1/6 and collagen α1(I) promoter-GFP (Coll-GFP) mice were subjected to ligation and scission of the common bile duct (BDL) to induce cholestatic liver fibrosis for HSC isolation or testing the therapeutic efficacy of RA. For the latter, after one week following BDL, RA was intraperitoneally injected daily at the dose of 0.1 mg/25 g body weight until the animals were sacrificed one week later for Sirius-red staining morphometry, immunohistochemistry, and qPCR analysis of the livers as described below.
After 3 days of the extract treatment, the cells were washed with cold phosphate-buffered saline (PBS) and fixed in 4% paraformaldehyde (PF). To stain α-smooth muscle actin (SMA), a fluorescein isothiocyanate (FITC) conjugated antibody (1:200, Sigma, Saint Louis, Mo.) was added as a primary antibody at 4° C. for overnight. After washing and blocking with 5% nonfat milk, fluorescence images were viewed by a Nikon microscope as described above. For intracellular lipid staining, HSCs treated with the extract for 3 days were cultured with retinol (5 μM) and palmitic acid (100 μM) (Sigma, Saint Louis, Mo.) for 48 hr, and fixed with 10% formalin in PBS. Oil Red O (0.5% w/v in isopropanol) was diluted with 67% volume of water, filtered, and added to the fixed HSCs. Apoptosis was detected in cultured HSCs and liver sections from BDL mice using a Cell Death Detection kit from Roche. For liver section immunostaining, liver tissues were fixed with 4% PF and embedded in freezing medium. Cryosections (7 μm) were washed with PBS, digested with 20 μg/ml proteinase K (Invitrogen, Carlsbad, Calif.), and blocked with 5% goat serum and 0.2% bovine serum albumin. The sections were then incubated with mouse anti-SMA antibody conjugated with FITC (Sigma, 1:400) and rabbit anti-desmin antibody (Thermo Scientific, Rockford, Ill., 1:400). After washing, the sections were incubated with goat anti-rabbit antibody conjugated with AlexaFluor 568 (Invitrogen, 1:400) and mouse anti-FITC antibody conjugated with DyLight 488 (Jackson ImmunoResearch, West Grove, Pa., 1:400). The sections were mounted with 4,6-diamidino-2-phenylindole (DAPI) (Invitrogen) and fluorescence images were visualized under a microscope. To quantify the percentage and density of HSCs in the liver after BDL with or without treatment of RA, 6 images were randomly captured using a 10× objective lens in 3 different sections and SMA+ and desmin+HSCs in the parenchyma were counted.
Total RNA was extracted from the cells using TRIzol reagent (Invitrogen) or RNeasy Mini kit (Qiagen). One microgram of RNA was reverse transcribed to cDNA by using SuperScript III First-Strand Synthesis System (Invitrogen) and amplified by 40 cycles using primers listed below and the SYBR Green PCR Master mix reagent (AB Applied Biosystem). Each threshold cycle (Ct) value was first normalized to the 36B4 Ct value of a sample and subsequently compared between the treatment and control samples.

The mark [7] stands for this setting: RA ip daily 0.1 mg/25 g, immunohistochemistry SMA/Desmin, vs vehicle.
Where [8] appears, read: RA ip daily 0.1 mg/25 g, vs vehicle.

Take `O=C(O)[C@H]1O[C@@H](Oc2cc3oc(-c4ccccc4)cc(=O)c3c(O)c2O)[C@H](O)[C@@H](O)[C@@H]1O` [BC, baicalin]: the TOPFLASH activity entry in data set [1] is reported as “suppress”. In data set [2], the “expression of Necdin” value is given as “reduced”, the “expression of Wnt3a” value is on record as “suppress”, the “expression of Wnt10b” value is on record as “suppress” and the EZH2 expression entry is recorded as “reduce”. Further, in data set [3], the “H3K27me2 at the Pparγ exon” value was “reduce” and the “MeCP2 enrichment in the Pparγ promoter” value is on record as “reduce”. Moreover, the MeCP2 protein level entry in data set [4] was “reduce”. The “morphologic reversal of activated HSCs with increased UV-excited autofluorescence” value in data set [5] is “morphologically reverse activated HSCs to quiescent cells”.
For the compound `O=C(/C=C/c1ccc(O)c(O)c1)O[C@H](Cc1ccc(O)c(O)c1)C(=O)O` [RA, rosmarinic acid], the TOPFLASH activity result in data set [1] is listed as “suppress”. Also, in data set [2], the “expression of Necdin” value is reported as “reduced”, the “expression of Wnt3a” value was “suppress”, the “expression of Wnt10b” value is “suppress” and the EZH2 expression entry is “reduce”. In data set [3], the “H3K27me2 at the Pparγ exon” value was “reduce” and the “MeCP2 enrichment in the Pparγ promoter” value is given as “reduce”. Further, in data set [6] (RA ip daily 0.1 mg/25 g), the “TUNEL+HSCs or hepatocytes in the liver parenchyma” value is listed as “No TUNEL+HSCs or hepatocytes are detected” and the “density of Desmin+HSCs (increased by BDL)” value is “no effect”. Moreover, in data set [6] (RA ip daily 0.1 mg/25 g body weight during second week of BDL), the “liver to body weight percentage” value came to 6.8 ± 0.7. Further, in data set [6] (RA ip daily 0.1 mg/25 g body weight during second week, p=0.29 vs vehicle), the “plasma ALT levels” value is given as 157+71. The “liver fibrosis by digital morphometric analysis of Sirius red-stained collagen fibers” value in data set [6] (RA ip daily 0.1 mg/25 g body weight during second week, vs vehicle) is “significant attenuation”. Moreover, in data set [6] (setting [7]), the “reduction of the percentage of SMA+HSCs” value is given as 75% and the “reduction of the percentage of SMA+MFs” value is recorded as 40%. In data set [6] (setting [8]), the “hepatic mRNA level of SMA” value is on record as “significantly reduced” and the “hepatic mRNA level of α1(I) procollagen” value was “significantly reduced”. In addition, in data set [4], the MeCP2 protein level result is reported as “reduce”. Further, the “morphologic reversal of activated HSCs with increased UV-excited autofluorescence” value in data set [5] was “morphologically reverse activated HSCs to quiescent cells”.
